Experimental data as given in ChEMBL document CHEMBL3046782, “Fungicidial Activity of Benthiavalicarb-isopropyl against Phytophthora infestans and Its Controlling Activity against Late Blight Diseases” (J Pestic Sci, 2005).
≈ marks a conversion by molar mass, not a printed value. Calls of active or inactive are those of the source. The calls are words filed in the database; no cut-off is given here.

What was measured:
Phytophthora capsici = experiment: Antifungal activity against Phytophthora capsici IFO 8386 assessed as inhibition of mycelial growth after 5 to 7 days; assay type: functional, organism-based; conditions: for IC50: read-out: I50
Phytophthora infestans [1] = experiment: Antifungal activity against Phytophthora infestans infected tomato assessed as control of late blight at 25 to 50 g/ha treated 4 to 5 times at 7 day interval; assay type: functional, organism-based
Phytophthora porri = experiment: Antifungal activity against Phytophthora porri IFO 30416 assessed as inhibition of mycelial growth after 5 to 7 days; assay type: functional, organism-based; conditions: for IC50: read-out: I50
Phytophthora infestans [2] = experiment: Antifungal activity against Phytophthora infestans in potato tuber slices assessed as inhibition of zoosporangia germination at 0.1 ug/ml after 6 hr relative to control; assay type: functional
Phytophthora infestans [3] = experiment: Antifungal activity against Phytophthora infestans r1234-2 assessed as inhibition of mycelial growth after 5 to 7 days; assay type: functional, organism-based; conditions: for IC50: read-out: I50
Phytophthora infestans [4] = experiment: Antifungal activity against Phytophthora infestans r0-3 assessed as inhibition of mycelial growth after 5 to 7 days; assay type: functional, organism-based; conditions: for IC50: read-out: I50
Phytophthora infestans [5] = experiment: Antifungal activity against Phytophthora infestans in potato tuber slices assessed as inhibition of zoosporangia germination at 1 ug/ml after 6 hr relative to control; assay type: functional
Phytophthora infestans [6] = experiment: Antifungal activity against Phytophthora infestans infected tomato assessed as systemic activity of controlling late blight at 100 mg/l after 24 hr; assay type: functional, organism-based
Phytophthora infestans [7] = experiment: microbe, parasite or virus in culture; assay type: functional; conditions: Tuber, in Solanum tuberosum, 48 h
Phytophthora infestans [8] = experiment: Antifungal activity against Phytophthora infestans infected tomato assessed as translaminar activity of controlling late blight at 3 to 100 mg/l after 24 hr; assay type: functional, organism-based
Phytophthora megasperma = experiment: Antifungal activity against Phytophthora megasperma assessed as inhibition of mycelial growth after 5 to 7 days; assay type: functional, organism-based; conditions: for IC50: read-out: I50
Phytophthora infestans [9] = experiment: Antifungal activity against Phytophthora infestans infected potato plant assessed as control of late blight at 50 to 75 g/ha treated 4 to 5 times at 7 day interval; assay type: functional, organism-based
Phytophthora nicotianae = experiment: Antifungal activity against Phytophthora nicotianae IFO 30595 assessed as inhibition of mycelial growth after 5 to 7 days; assay type: functional, organism-based; conditions: for IC50: read-out: I50
Phytophthora infestans [10] = experiment: Antifungal activity against Phytophthora infestans in potato tuber slices assessed as inhibition of cystospore germination at 0.1 ug/ml after 6 hr relative to control; assay type: functional
Phytophthora palmivora = experiment: Antifungal activity against Phytophthora palmivora IFO 30285 assessed as inhibition of mycelial growth after 5 to 7 days; assay type: functional, organism-based; conditions: for IC50: read-out: I50
Phytophthora infestans [11] = experiment: microbe, parasite or virus in culture; assay type: functional; conditions: Tuber, in Solanum tuberosum, 48 h; remark: listed apart in the source
Phytophthora infestans [12] = experiment: Antifungal activity against Phytophthora infestans infected tomato assessed as control of late blight at 10 mg/l after 12 hr by greenhouse test; assay type: functional, organism-based
Phytophthora infestans [13] = experiment: Antifungal activity against Phytophthora infestans TK-301 assessed as inhibition of mycelial growth after 5 to 7 days; assay type: functional, organism-based
Phytophthora infestans [14] = experiment: Antifungal activity against Phytophthora infestans in potato tuber slices assessed as inhibition of zoosporangia release at 1 ug/ml after 3 hr relative to control; assay type: functional
Phytophthora infestans [15] = experiment: Antifungal activity against Phytophthora infestans in potato tuber slices assessed as inhibition of cystospore germination at 1 ug/ml after 6 hr relative to control; assay type: functional
Phytophthora infestans [16] = experiment: Antifungal activity against Phytophthora infestans in potato tuber slices assessed as inhibition of zoosporangia motility at 10 ug/ml after 3 hr relative to control; assay type: functional, organism-based
Phytophthora infestans [17] = experiment: Antifungal activity against Phytophthora infestans infected tomato assessed as control of late blight at 300 mg/l after 24 hr by greenhouse test; assay type: functional, organism-based
Phytophthora infestans [18] = experiment: Antifungal activity against Phytophthora infestans in potato tuber slices assessed as inhibition of cystospore germination at 10 ug/ml after 6 hr relative to control; assay type: functional
Phytophthora infestans [19] = experiment: Antifungal activity against Phytophthora infestans in potato tuber slices assessed as inhibition of zoosporangia release at 100 ug/ml after 3 hr relative to control; assay type: functional
Phytophthora katsurae = experiment: Antifungal activity against Phytophthora katsurae assessed as inhibition of mycelial growth after 5 to 7 days; assay type: functional, organism-based; conditions: for IC50: read-out: I50
Phytophthora cactorum = experiment: Antifungal activity against Phytophthora cactorum IFO 30474 assessed as inhibition of mycelial growth after 5 to 7 days; assay type: functional, organism-based; conditions: for IC50: read-out: I50
Phytophthora infestans [20] = experiment: Antifungal activity against Phytophthora infestans in potato tuber slices assessed as inhibition of zoosporangia motility at 100 ug/ml after 3 hr relative to control; assay type: functional, organism-based
Phytophthora infestans [21] = experiment: Antifungal activity against Phytophthora infestans C-3 assessed as inhibition of mycelial growth after 5 to 7 days; assay type: functional, organism-based; conditions: for IC50: read-out: I50
Phytophthora infestans [22] = experiment: Antifungal activity against Phytophthora infestans r1234 assessed as inhibition of mycelial growth after 5 to 7 days; assay type: functional, organism-based; conditions: for IC50: read-out: I50
Phytophthora infestans [23] = experiment: microbe, parasite or virus in culture; assay type: functional; conditions: Tuber, in Solanum tuberosum, 48 h; remark: listed apart in the source
Phytophthora infestans [24] = experiment: Antifungal activity against Phytophthora infestans in potato tuber slices assessed as inhibition of zoosporangia germination at 10 ug/ml after 6 hr relative to control; assay type: functional
Phytophthora infestans [25] = experiment: Antifungal activity against Phytophthora infestans in potato tuber slices assessed as inhibition of zoosporangia motility at 1 ug/ml after 3 hr relative to control; assay type: functional, organism-based
Phytophthora infestans [26] = experiment: Antifungal activity against Phytophthora infestans in potato tuber slices assessed as inhibition of zoosporangia release at 10 ug/ml after 3 hr relative to control; assay type: functional

CC(C)OC(=O)N[C@H](C(=O)N[C@H](C)c1nc2ccc(F)cc2s1)C(C)C [BENTHIAVALICARB-ISOPROPYL]
MIC (Phytophthora capsici): 0.03 µg/mL (≈ 0.0786 µM) | IC50 (Phytophthora capsici): 0.01 µg/mL (≈ 0.0262 µM) | Activity (Phytophthora infestans [1]): Active | MIC (Phytophthora porri): 0.1 µg/mL (≈ 0.262 µM) | IC50 (Phytophthora porri): 0.02 µg/mL (≈ 0.0524 µM) | inhibition at 0.1 µg/mL (Phytophthora infestans [2]): 98.6% | MIC (Phytophthora infestans [3]): 0.1 µg/mL (≈ 0.262 µM) | IC50 (Phytophthora infestans [3]): 0.03 µg/mL (≈ 0.0786 µM) | MIC (Phytophthora infestans [4]): 0.03 µg/mL (≈ 0.0786 µM) | IC50 (Phytophthora infestans [4]): 0.03 µg/mL (≈ 0.0786 µM) | inhibition at 1 µg/mL (Phytophthora infestans [5]): 100% | Activity (Phytophthora infestans [6]): Active | inhibition at 1 µg/mL (Phytophthora infestans [7]): 96.8% | Activity (Phytophthora infestans [8]): Active | MIC (Phytophthora megasperma): 0.1 µg/mL (≈ 0.262 µM) | IC50 (Phytophthora megasperma): 0.02 µg/mL (≈ 0.0524 µM) | Activity (Phytophthora infestans [9]): Active | MIC (Phytophthora nicotianae): 0.1 µg/mL (≈ 0.262 µM) | IC50 (Phytophthora nicotianae): 0.05 µg/mL (≈ 0.131 µM) | inhibition at 0.1 µg/mL (Phytophthora infestans [10]): 95.5% | MIC (Phytophthora palmivora): 0.1 µg/mL (≈ 0.262 µM) | IC50 (Phytophthora palmivora): 0.02 µg/mL (≈ 0.0524 µM) | inhibition at 0.1 µg/mL (Phytophthora infestans [11]): 45.2% | Activity (Phytophthora infestans [12]): Active | MIC (Phytophthora infestans [13]): 0.03 µg/mL (≈ 0.0786 µM) | IC50 (Phytophthora infestans [13]; read-out: I50): 0.03 µg/mL (≈ 0.0786 µM) | inhibition at 1 µg/mL (Phytophthora infestans [14]): 0% | inhibition at 1 µg/mL (Phytophthora infestans [15]): 100% | inhibition (Phytophthora infestans [16]): inactive | Activity (Phytophthora infestans [17]): Active | inhibition at 10 µg/mL (Phytophthora infestans [18]): 100% | inhibition at 100 µg/mL (Phytophthora infestans [19]): 45.5% | MIC (Phytophthora katsurae): 0.03 µg/mL (≈ 0.0786 µM) | IC50 (Phytophthora katsurae): 0.04 µg/mL (≈ 0.105 µM) | MIC (Phytophthora cactorum): 0.03 µg/mL (≈ 0.0786 µM) | IC50 (Phytophthora cactorum): 0.03 µg/mL (≈ 0.0786 µM) | inhibition (Phytophthora infestans [20]): inactive | MIC (Phytophthora infestans [21]): 0.1 µg/mL (≈ 0.262 µM) | IC50 (Phytophthora infestans [21]): 0.03 µg/mL (≈ 0.0786 µM) | MIC (Phytophthora infestans [22]): 0.1 µg/mL (≈ 0.262 µM) | IC50 (Phytophthora infestans [22]): 0.02 µg/mL (≈ 0.0524 µM) | inhibition at 10 µg/mL (Phytophthora infestans [23]): 97.6% | inhibition at 10 µg/mL (Phytophthora infestans [24]): 100% | inhibition (Phytophthora infestans [25]): inactive | inhibition at 10 µg/mL (Phytophthora infestans [26]): 0%

COCC(=O)N(c1c(C)cccc1C)C(C)C(=O)OC (configuration not stated) [METALAXYL]
MIC (Phytophthora capsici): > 3 µg/mL | IC50 (Phytophthora capsici): 0.62 µg/mL (≈ 2.22 µM) | MIC (Phytophthora porri): > 3 µg/mL | IC50 (Phytophthora porri): 0.08 µg/mL (≈ 0.286 µM) | MIC (Phytophthora infestans [3]): > 10 µg/mL | IC50 (Phytophthora infestans [3]): 0.05 µg/mL (≈ 0.179 µM) | MIC (Phytophthora infestans [4]): > 10 µg/mL | IC50 (Phytophthora infestans [4]): 0.21 µg/mL (≈ 0.752 µM) | MIC (Phytophthora megasperma): > 100 µg/mL | IC50 (Phytophthora megasperma): 0.34 µg/mL (≈ 1.22 µM) | MIC (Phytophthora nicotianae): > 3 µg/mL | IC50 (Phytophthora nicotianae): 0.08 µg/mL (≈ 0.286 µM) | MIC (Phytophthora palmivora): > 3 µg/mL | IC50 (Phytophthora palmivora): 0.54 µg/mL (≈ 1.93 µM) | MIC (Phytophthora katsurae): > 100 µg/mL | IC50 (Phytophthora katsurae): 0.46 µg/mL (≈ 1.65 µM) | MIC (Phytophthora cactorum): 0.3 µg/mL (≈ 1.07 µM) | IC50 (Phytophthora cactorum): 0.03 µg/mL (≈ 0.107 µM) | MIC (Phytophthora infestans [21]): 3 µg/mL (≈ 10.7 µM) | IC50 (Phytophthora infestans [21]): 0.15 µg/mL (≈ 0.537 µM) | MIC (Phytophthora infestans [22]): 0.3 µg/mL (≈ 1.07 µM) | IC50 (Phytophthora infestans [22]): 0.09 µg/mL (≈ 0.322 µM)
